Source: patent US20230391786A1, “cGAS INHIBITORS” (Eli Lilly and Company, priority 2022, published 2023)
Structures can show the parent of a compound that is named as a salt. Where two headings read alike, the source gives them in different places.

Key:
recombinant human cGAS = recombinant human cGAS (Homo sapiens (Human), UniProt Q8N884); experiment: In vitro inhibition assay of cGAS activity (cGAMP production, RapidFire mass spectrometry); type: biochemical; details: 10 nM recombinant human cGAS, 60 nM 75-bp dsDNA, ATP, GTP, room temperature 3 hours, read-out: IC50 (μM), In vitro inhibition assay for Compounds 95-348
Sequence of recombinant human cGAS (Q8N884 whole entry): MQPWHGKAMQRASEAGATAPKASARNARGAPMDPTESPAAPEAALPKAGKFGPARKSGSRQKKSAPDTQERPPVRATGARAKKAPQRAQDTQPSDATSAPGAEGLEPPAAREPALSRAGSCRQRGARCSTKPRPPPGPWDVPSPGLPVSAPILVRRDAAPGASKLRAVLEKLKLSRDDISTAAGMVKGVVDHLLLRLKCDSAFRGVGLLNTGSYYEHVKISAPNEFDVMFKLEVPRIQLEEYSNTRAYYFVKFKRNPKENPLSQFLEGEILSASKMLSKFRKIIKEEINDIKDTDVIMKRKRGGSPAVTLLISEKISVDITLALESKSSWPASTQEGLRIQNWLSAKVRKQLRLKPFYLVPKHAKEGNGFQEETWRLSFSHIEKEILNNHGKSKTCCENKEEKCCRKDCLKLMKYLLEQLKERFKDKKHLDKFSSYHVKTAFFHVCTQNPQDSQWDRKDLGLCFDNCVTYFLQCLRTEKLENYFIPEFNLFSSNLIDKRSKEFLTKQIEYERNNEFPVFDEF
Summary of the method: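 Product cGAMP was quantified by RapidFire MS against a difluoro-cGAMP internal standard after a formic acid quench. The reaction contained 10 nM recombinant full-length human cGAS, 75-bp dsDNA (60 nM), ATP and GTP (50 μM) and ran for 3 h at room temperature. IC50 values came from 4-parameter nonlinear regression.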

[1] = test system: cGAS activity in THP1 cells (IFNb as marker); experiment: Cellular assay to measure cGAS activity (IFNb production in PMA-differentiated THP1 cells stimulated by RDG-Adenovirus-GFP); type: cell-based, human; details: PMA differentiated, RDG-Adenovirus-GFP 1000 MOI, IFNb AlphaLISA, overnight incubation, read-out: IC50 (μM), Cellular assay for Compounds 95-348
Summary of the method: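 The readout is secreted IFNb measured by AlphaLISA after overnight compound exposure. THP1 cells, differentiated with PMA for 24 h and rested overnight, were infected with RDG-Adenovirus-GFP (1000 MOI, 4 h) before compounds were added; IC50 came from a 4-parameter logistic fit of inhibition against log concentration.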

[2] = Homo sapiens, THP-1, THP1 cells

`Clc1cc(OC2COC2)c2c(-c3cn[nH]c3)c[nH]c2c1Cl` [Example 206, 6,7-Dichloro-4-(oxetan-3-yloxy)-3-(1H-pyrazol-4-yl)-1H-indole] gave an IC50 (recombinant human cGAS) of 0.0421 µM and an IC50 [1, 2] of 1.28 µM.

For `COCCC(=O)NC1CCn2c1c(-c1cn[nH]c1)c1ccc(Cl)c(Cl)c12` (centres unmarked) [Example 240, N-(5,6-Dichloro-9-(1H-pyrazol-4-yl)-2,3-dihydro-1H-pyrrolo[1,2-a]indol-1-yl)-3-methoxypropanamide], the IC50 (recombinant human cGAS) was 0.0642 µM and the IC50 [1, 2] was > 10 µM.

`O=C(Cc1[nH]c2c(Cl)c(Cl)ccc2c1-c1cn[nH]c1)NCc1cc[nH]n1` [Example 178, 2-[6,7-Dichloro-3-(1H-pyrazol-4-yl)-1H-indol-2-yl]-N-(1H-pyrazol-3-ylmethyl) acetamide] gave an IC50 (recombinant human cGAS) of 0.0413 µM and an IC50 [1, 2] of 3.62 µM.

In the case of `Cc1nnc(-c2[nH]c3c(Cl)c(Cl)ccc3c2-c2cn[nH]c2)o1` [Example 127, 2-(6,7-Dichloro-3-(1H-pyrazol-4-yl)-1H-indol-2-yl)-5-methyl-1,3,4-oxadiazole], the IC50 (recombinant human cGAS) is reported as 0.029 µM and the IC50 [1, 2] is reported as 0.216 µM.

`CCOc1cc(Cl)c(Cl)c2c1c(-c1cn[nH]c1)c1n2CC[C@@H]1NC(=O)CO` [Example 343, (S)—N-(5,6-Dichloro-8-ethoxy-9-(1H-pyrazol-4-yl)-2,3-dihydro-1H-pyrrolo[1,2-a]indol-1-yl)-2-hydroxyacetamide] was tested, and the IC50 (recombinant human cGAS) was 0.00614 µM and the IC50 [1, 2] was 0.565 µM.

`CN(C)C(=O)CC(=O)N1CCn2c(c(-c3cn[nH]c3)c3ccc(Cl)c(Cl)c32)C1` [Example 302, 3-(6,7-Dichloro-10-(1H-pyrazol-4-yl)-3,4-dihydropyrazino[1,2-a]indol-2(1H)-yl)-N,N-dimethyl-3-oxopropanamide] gave an IC50 (recombinant human cGAS) of 0.0323 µM and an IC50 [1, 2] of 6.95 µM.

Work on `O=C1NCC(C(=O)N2CCn3c(c(-c4cn[nH]c4)c4ccc(Cl)c(Cl)c43)C2)O1` (single isomer, unassigned) [Example 260, 5-[6,7-Dichloro-10-(1H-pyrazol-4-yl)-3,4-dihydro-1H-pyrazino[1,2-a]indole-2-carbonyl]oxazolidin-2-one] yielded an IC50 (recombinant human cGAS) of 0.0115 µM and an IC50 ([1]; THP1 cells) of 4.05 µM.

For `CC(=O)NC1Cc2c(-c3cn[nH]c3)c3ccc(Cl)c(Cl)c3n2C1` (centres unmarked) [Example 155, N-(5,6-Dichloro-9-(1H-pyrazol-4-yl)-2,3-dihydro-1H-pyrrolo[1,2-a]indol-2-yl)acetamide], the IC50 (recombinant human cGAS) was 0.0273 µM and the IC50 [1, 2] was 7.68 µM.

`NC(=O)Cn1cc(-n2cc(-c3cn[nH]c3)c3ccc(Cl)c(Cl)c32)nn1` [Example 213, 2-[4-[6,7-Dichloro-3-(1H-pyrazol-4-yl)indol-1-yl]triazol-1-yl]acetamide] gave an IC50 (recombinant human cGAS) of 0.0538 µM and an IC50 [1, 2] of 4.1 µM.

In the case of `CCNc1cc(Cl)c(Cl)c2c1c(-c1cn[nH]c1)c1n2CCN(C(C)=O)C1` [Example 255, 1-(6,7-dichloro-9-(ethylamino)-10-(1H-pyrazol-4-yl)-3,4-dihydropyrazino[1,2-a]indol-2(1H)-yl)ethan-1-one hydrochloride], the IC50 (recombinant human cGAS) is reported as 0.0326 µM and the IC50 [1, 2] is reported as 2.09 µM.

Work on `CC(=O)NCCn1cc(-c2cn[nH]c2)c2c(NCCCO)cc(Cl)c(Cl)c21` [Example 195, N-[2-[6,7-Dichloro-4-(3-hydroxypropylamino)-3-(1H-pyrazol-4-yl)indol-1-yl]ethyl]acetamide] yielded an IC50 (recombinant human cGAS) of 0.0298 µM and an IC50 [1, 2] of 1.23 µM.

In the case of `O=C(C1COCCOC1)N1CCn2c(c(-c3cn[nH]c3)c3ccc(Cl)c(Cl)c32)C1` [Example 310, (6,7-Dichloro-10-(1H-pyrazol-4-yl)-3,4-dihydropyrazino[1,2-a]indol-2(1H)-yl)(1,4-dioxepan-6-yl)methanone], the IC50 (recombinant human cGAS) is reported as 0.0428 µM and the IC50 [1, 2] is reported as > 10 µM.

`FC(F)COc1cc(Cl)c(Cl)c2[nH]cc(-c3cn[nH]c3)c12` [Example 184, 6,7-Dichloro-4-(2,2-difluoroethoxy)-3-(1H-pyrazol-4-yl)-1H-indole] gave an IC50 (recombinant human cGAS) of 0.0385 µM and an IC50 [1, 2] of 1.13 µM.
